A word on the IC50: it is the midpoint of a concentration-inhibition curve.

For one test, the target named is T1, human recombinant PLK4 (Homo sapiens, UniProt O00444).
T1 construct: purchased ThermoFisher PV6396
T1 sequence (O00444 1-970): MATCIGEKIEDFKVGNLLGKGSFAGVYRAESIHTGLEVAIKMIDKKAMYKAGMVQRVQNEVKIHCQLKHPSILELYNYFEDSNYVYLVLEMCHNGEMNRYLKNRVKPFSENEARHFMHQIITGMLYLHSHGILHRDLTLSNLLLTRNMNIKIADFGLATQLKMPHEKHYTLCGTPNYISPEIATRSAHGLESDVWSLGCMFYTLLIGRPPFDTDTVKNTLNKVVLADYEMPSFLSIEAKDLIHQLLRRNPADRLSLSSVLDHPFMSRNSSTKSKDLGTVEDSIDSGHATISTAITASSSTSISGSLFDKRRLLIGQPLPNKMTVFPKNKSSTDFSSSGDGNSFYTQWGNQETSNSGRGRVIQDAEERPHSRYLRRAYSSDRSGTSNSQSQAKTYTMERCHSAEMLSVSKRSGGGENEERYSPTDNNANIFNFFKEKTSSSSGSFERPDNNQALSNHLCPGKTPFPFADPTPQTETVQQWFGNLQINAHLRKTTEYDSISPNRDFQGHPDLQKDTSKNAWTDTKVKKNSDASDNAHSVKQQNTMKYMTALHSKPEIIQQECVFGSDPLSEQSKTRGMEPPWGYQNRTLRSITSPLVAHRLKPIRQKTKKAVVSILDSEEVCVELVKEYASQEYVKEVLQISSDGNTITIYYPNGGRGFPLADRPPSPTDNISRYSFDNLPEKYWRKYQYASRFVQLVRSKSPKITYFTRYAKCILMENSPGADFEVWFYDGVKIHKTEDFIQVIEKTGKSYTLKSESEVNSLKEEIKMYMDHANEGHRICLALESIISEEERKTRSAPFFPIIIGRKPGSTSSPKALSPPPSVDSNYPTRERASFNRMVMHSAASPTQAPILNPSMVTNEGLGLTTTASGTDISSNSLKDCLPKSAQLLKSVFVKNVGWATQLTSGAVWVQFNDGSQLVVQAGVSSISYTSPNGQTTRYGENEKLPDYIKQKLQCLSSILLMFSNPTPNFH
Put plainly: PLK4 Biochemical Assay (ADP-Glo). As to conditions: 0.5 nM PLK4, 8.0 μM ATP, 4.7 μM MBP, 6 hours at RT. Here is the method:
Activity of human recombinant PLK4 (ThermoFisher, cat #PV6396) was measured by quantification of adenosine diphosphate (ADP) using the ADP-Glo Kinase Assay Kit (Promega, cat #V9102). […] 5 μL of 1.0 nM PLK4 protein in assay buffer (50 mM HEPES, pH 7.5, 0.01% Brij-35, 0.01% BSA, 10 mM MgCl2, 1 mM EGTA, 1 mM DTT) was added to the plates. Test compounds and PLK4 were incubated for 15 minutes at room temperature (RT). […] Reactions were stopped and the remaining ATP depleted by adding 10 μL of ADP-Glo reagent (Promega, cat #V912B) and incubating for 40 minutes at RT. The simultaneous conversion of the remaining ADP to ATP and measurement of the newly synthesized ATP was achieved by addition of 20 μL Kinase Detection reagent (Promega, cat #V914B), incubation for 30 min at RT, and luminescence detection using the EnVision plate reader (PerkinElmer). […] The IC50 values reported in Table 2 were determined using four parameter non-linear regression curve fit.
In general terms: ADP-Glo first removes unused ATP, then detects ADP through luciferase.

Test [1] deals with T2, human recombinant Aurora B (Homo sapiens, UniProt Q96GD4).
T2 construct: purchased ThermoFisher PR9210B
Kind of test: Aurora B Kinase Biochemical Assay (ADP-Glo). As to conditions: selectivity ratio; Aurora B 10 nM, 114 μM ATP. Here is the method:
Activity of human recombinant Aurora B (ThermoFisher, cat #PR9210B) was measured by quantification of adenosine diphosphate (ADP) using the ADP-Glo Kinase Assay Kit (Promega, cat #V9102). Test compounds were solubilized in dimethyl sulfoxide (DMSO) and dispensed into 384-well white polystyrene nonbinding plates (Greiner, cat #781094) using the Echo acoustic dispenser (Labcyte Inc.) in a 11-point 3-fold titration in duplicates. 5 μL of 20 nM Aurora B in assay buffer (50 mM HEPES, pH 7.5, 0.01% Brij-35, 0.01% BSA, 10 mM MgCl2, 1 mM EGTA, 1 mM DTT) was added to the plates. Test compounds and Aurora B were incubated for 15 minutes at room temperature (RT). Then 5 μL of a 228 μM adenosine triphosphate (ATP) (Promega, cat #V915B) and 9.3 μM Myelin Basic Protein (MBP) (SignalChem, cat #M42-51N) substrate solution in assay buffer was added and the reaction mixture was incubated for 2 hours at RT. The final concentration of Aurora b, ATP and MBP in the reactions were 10 nM, 114 μM and 4.7 μM, respectively. Reactions were stopped and the remaining ATP depleted by adding 10 μL of ADP-Glo reagent (Promega, cat #V912B) and incubating for 40 minutes at RT. The simultaneous conversion of the remaining ADP to ATP and measurement of the newly synthesized ATP was achieved by addition of 20 μL Kinase Detection reagent (Promega, cat #V9141B), incubation for 30 min at RT, and luminescence detection using the EnVision plate reader (PerkinElmer). Reactions lacking Aurora B were used as […]. Reactions containing DMSO alone were used as […]. The IC50 values reported in Table 2 were determined using four parameter non-linear regression curve fit.

T2 sequence (Q96GD4 whole entry): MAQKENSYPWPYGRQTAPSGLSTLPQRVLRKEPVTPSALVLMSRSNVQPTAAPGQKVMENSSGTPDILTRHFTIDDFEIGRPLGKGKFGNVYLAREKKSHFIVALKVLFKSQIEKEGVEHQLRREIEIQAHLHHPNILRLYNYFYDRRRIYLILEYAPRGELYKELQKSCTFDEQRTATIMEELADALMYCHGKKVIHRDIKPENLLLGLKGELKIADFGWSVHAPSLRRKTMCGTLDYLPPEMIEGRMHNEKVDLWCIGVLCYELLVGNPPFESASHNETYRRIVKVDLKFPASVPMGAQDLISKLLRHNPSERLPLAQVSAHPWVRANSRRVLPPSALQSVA

With `COc1ccc2c(c1)[C@]1(C[C@H]1c1ccc3c(Nc4nc(-c5cnn(C)c5)cnc4OC)n[nH]c3c1)C(=O)N2` [Example 24, (1R,2S)-5′-methoxy-2-(3-{[3-methoxy-6-(1-methyl-1H-pyrazol-4-yl)pyrazin-2-yl]amino}-1H-indazol-6-yl)spiro[cyclopropane-1,3′-indol]-2′(1′H)-one], the concentration for half-maximal inhibition (IC50) on human recombinant PLK4 was found to be 0.408 nM. In addition, the “[Aurora B IC50 (nM)]/[PLK4 IC50 (nM)]” value in test [1] came to 263.2352.

Consider `COc1ccc2c(c1)[C@]1(C[C@H]1c1ccc3c(Nc4cc(-c5nccs5)ccc4OC)n[nH]c3c1)C(=O)N2` [Example 14, (1R,2S)-5′-methoxy-2-{3-[2-methoxy-5-(1,3-thiazol-2-yl)anilino]-1H-indazol-6-yl}spiro[cyclopropane-1,3′-indol]-2′(1′H)-one], for which the IC50 at human recombinant PLK4 came to 0.639 nM. For the same compound, the “[Aurora B IC50 (nM)]/[PLK4 IC50 (nM)]” value in test [1] is 897.1830.

As to `COc1ccc2c(c1)[C@]1(C[C@H]1c1ccc3c(Nc4cc(-c5ncco5)ccc4OC)n[nH]c3c1)C(=O)N2` [Example 13, (1R,2S)-5′-methoxy-2-{3-[2-methoxy-5-(1,3-oxazol-2-yl)anilino]-1H-indazol-6-yl}spiro[cyclopropane-1,3′-indol]-2′(1′H)-one], the 50% inhibitory concentration (IC50) on human recombinant PLK4 worked out at 0.65 nM. Also, in test [1], the “[Aurora B IC50 (nM)]/[PLK4 IC50 (nM)]” value was 1120.7692.

Regarding `CCOc1cc(-c2cn(C)cn2)ccc1Nc1n[nH]c2cc([C@@H]3C[C@@]34C(=O)Nc3ccc(OC)cc34)ccc12` [Example 29, (1R,2S)-2-{3-[2-ethoxy-4-(1-methyl-1H-imidazol-4-yl)anilino]-1H-indazol-6-yl}-5′-methoxyspiro[cyclopropane-1,3′-indol]-2′(1′H)-one], the 50% inhibitory concentration (IC50) on human recombinant PLK4 turned out to be 1.95 nM. For the same compound, the “[Aurora B IC50 (nM)]/[PLK4 IC50 (nM)]” value in test [1] was 211.2020.

With `COc1ccc2c(c1)[C@]1(C[C@H]1c1ccc3c(Nc4cc5c(cc4OC)S(=O)(=O)CC5)n[nH]c3c1)C(=O)N2` [Example 1, 6-methoxy-5-({6-[(1R,2S)-5′-methoxy-2′-oxo-1′,2′-dihydrospiro[cyclopropane-1,3′-indol]-2-yl]-1H-indazol-3-yl}amino)-2,3-dihydro-1H-1-benzothiophene-1,1-dione], the 50% inhibitory concentration (IC50) on human recombinant PLK4 is 0.797 nM. Further, the “[Aurora B IC50 (nM)]/[PLK4 IC50 (nM)]” value in test [1] came out at 791.6196.

As to `COc1ccc2c(c1)[C@]1(C[C@H]1c1ccc3c(Nc4cc(-c5cnn(CC(F)F)c5)cnc4OC)n[nH]c3c1)C(=O)N2` [Example 46, (1R,2S)-2-(3-((5-(1-(2,2-difluoroethyl)-1H-pyrazol-4-yl)-2-methoxypyridin-3-yl)amino)-1H-indazol-6-yl)-5′-methoxyspiro[cyclopropane-1,3′-indolin]-2′-one], the IC50 at human recombinant PLK4 came out at 1.25 nM. Also, the “[Aurora B IC50 (nM)]/[PLK4 IC50 (nM)]” value in test [1] came to 469.6557.

As to `COc1ccc2c(c1)[C@]1(C[C@H]1c1ccc3c(Nc4ccc(C(C)=O)cc4OC)n[nH]c3c1)C(=O)N2` [Example 3, (1R,2S)-2-[3-(4-acetyl-2-methoxyanilino)-1H-indazol-6-yl]-5′-methoxyspiro[cyclopropane-1,3′-indol]-2′(1′H)-one], the half-maximal inhibitory concentration (IC50) at human recombinant PLK4 was 2.76 nM. For the same compound, in test [1], the “[Aurora B IC50 (nM)]/[PLK4 IC50 (nM)]” value is reported as 256.2681.

As for `COc1ccc2c(c1)[C@]1(C[C@H]1c1ccc3c(Nc4cc(-c5cnco5)ccc4OC)n[nH]c3c1)C(=O)N2` [Example 18, (1R,2S)-5′-methoxy-2-{3-[2-methoxy-5-(1,3-oxazol-5-yl)anilino]-1H-indazol-6-yl}spiro[cyclopropane-1,3′-indol]-2′(1′H)-one], on human recombinant PLK4, the IC50 is 0.71 nM. In addition, the “[Aurora B IC50 (nM)]/[PLK4 IC50 (nM)]” value in test [1] was 520.

For the compound `COc1ccc2c(c1)[C@]1(C[C@H]1c1ccc3c(Nc4cc(-c5cnn(CC(F)F)c5)ccc4OC)n[nH]c3c1)C(=O)N2` [Example 39, (1R,2S)-2-(3-{5-[1-(2,2-difluoroethyl)-1H-pyrazol-4-yl]-2-methoxyanilino}-1H-indazol-6-yl)-5′-methoxyspiro[cyclopropane-1,3′-indol]-2′(1′H)-one], the half-inhibitory concentration (IC50) at human recombinant PLK4 was found to be 1.93 nM. For the same compound, the “[Aurora B IC50 (nM)]/[PLK4 IC50 (nM)]” value in test [1] came to 764.1.

For the compound `CCOc1cc2ccccc2nc1Nc1n[nH]c2cc([C@@H]3C[C@@]34C(=O)Nc3ccc(OC)cc34)ccc12` [Example 8, (1R,2S)-2-{3-[(3-ethoxyquinolin-2-yl)amino]-1H-indazol-6-yl}-5′-methoxyspiro[cyclopropane-1,3′-indol]-2′(1′H)-one], the IC50 at human recombinant PLK4 is 1.83 nM. Moreover, in test [1], the “[Aurora B IC50 (nM)]/[PLK4 IC50 (nM)]” value turned out to be 1829.1347.

As to `CCOc1ccc(-c2nccs2)nc1Nc1n[nH]c2cc([C@@H]3C[C@@]34C(=O)Nc3ccc(OC)cc34)ccc12` [Example 28, (1R,2S)-2-(3-{[3-ethoxy-6-(1,3-thiazol-2-yl)pyridin-2-yl]amino}-1H-indazol-6-yl)-5′-methoxyspiro[cyclopropane-1,3′-indol]-2′(1′H)-one], the IC50 at human recombinant PLK4 amounted to 0.341 nM. The “[Aurora B IC50 (nM)]/[PLK4 IC50 (nM)]” value in test [1] is recorded as 1526.5629.

Consider `COc1ccc2c(c1)[C@]1(C[C@H]1c1ccc3c(Nc4ccc(-c5nnn(C)n5)cc4OC)n[nH]c3c1)C(=O)N2` [Example 17, (1R,2S)-5′-methoxy-2-{3-[2-methoxy-4-(2-methyl-2H-tetrazol-5-yl)anilino]-1H-indazol-6-yl}spiro[cyclopropane-1,3′-indol]-2′(1′H)-one], for which the concentration for half-maximal inhibition (IC50) on human recombinant PLK4 worked out at 2 nM. In addition, in test [1], the “[Aurora B IC50 (nM)]/[PLK4 IC50 (nM)]” value came to 190.

Consider `COc1ccc2c(c1)[C@]1(C[C@H]1c1ccc3c(Nc4cc(-c5cocn5)ccc4OC)n[nH]c3c1)C(=O)N2` [Example 16, (1R,2S)-5′-methoxy-2-{3-[2-methoxy-5-(1,3-oxazol-4-yl)anilino]-1H-indazol-6-yl}spiro[cyclopropane-1,3′-indol]-2′(1′H)-one], for which the IC50 at human recombinant PLK4 stood at 0.894 nM. Moreover, the “[Aurora B IC50 (nM)]/[PLK4 IC50 (nM)]” value in test [1] stood at 730.6487.

As for `COc1ccc2c(c1)[C@]1(C[C@H]1c1ccc3c(Nc4cc(-c5cnn(C)c5)cnc4OC)n[nH]c3c1)C(=O)N2` [Example 26, (1R,2S)-5′-methoxy-2-(3-{[2-methoxy-5-(1-methyl-1H-pyrazol-4-yl)pyridin-3-yl]amino}-1H-indazol-6-yl)spiro[cyclopropane-1,3′-indol]-2′(1′H)-one], the 50% inhibitory concentration (IC50) at human recombinant PLK4 is 0.84 nM. For the same compound, the “[Aurora B IC50 (nM)]/[PLK4 IC50 (nM)]” value in test [1] stood at 921.6946.

`COc1ccc2c(c1)[C@]1(C[C@H]1c1ccc3c(Nc4nc(-c5cnn(C)c5)ncc4OC)n[nH]c3c1)C(=O)N2` [Example 31, (1R,2S)-5′-methoxy-2-(3-{[5-methoxy-2-(1-methyl-1H-pyrazol-4-yl)pyrimidin-4-yl]amino}-1H-indazol-6-yl)spiro[cyclopropane-1,3′-indol]-2′(1′H)-one]: the concentration for half-maximal inhibition (IC50) on human recombinant PLK4 turned out to be 0.259 nM. The “[Aurora B IC50 (nM)]/[PLK4 IC50 (nM)]” value in test [1] was determined as 429.3981.

Source of the values: patent US20260108527A1, “POLO LIKE KINASE 4 INHIBITORS” (ORIC Pharmaceuticals, Inc., priority 2022, published 2026).
